Results on eleven compounds are retold here after ChEMBL document CHEMBL3352076, “Synthesis of novel triazole-linked mefloquine derivatives: biological evaluation against Plasmodium falciparum” (Bioorg Med Chem Lett, 2014).

The term IC50 denotes the point on the concentration scale where inhibition reaches its midpoint.

This assay deals with Plasmodium falciparum. Kind of assay: Antimalarial activity against chloroquine-sensitive Plasmodium falciparum NF54. It is filed as functional, organism-based.
`FC(F)(F)c1cc(-n2cc(CN3CCN(Cc4ccccc4)CC3)nn2)c2cccc(C(F)(F)F)c2n1`: half-maximal inhibition (IC50) required 25.6 µM.
`FC(F)(F)c1cc(-n2cc(CN3CCN(Cc4ccncc4)CC3)nn2)c2cccc(C(F)(F)F)c2n1` yielded an IC50 of 10.6 µM.
Next, `FC(F)(F)c1cc(-n2cc(CN3CCN(Cc4c[nH]c5ccccc45)CC3)nn2)c2cccc(C(F)(F)F)c2n1`: 1.3 µM; `FC(F)(F)c1cc(-n2cc(CN3CCN(C4CCCCC4)CC3)nn2)c2cccc(C(F)(F)F)c2n1`: 31.8 µM.
In the case of `FC(F)(F)c1cc(-n2cc(CN3CCN(C4C5CC6CC(C5)CC4C6)CC3)nn2)c2cccc(C(F)(F)F)c2n1` (stereo unspecified) it was 14.1 µM; in that of `FC(F)(F)c1cc(-n2cc(CN(C3CCCCC3)C3CCCCC3)nn2)c2cccc(C(F)(F)F)c2n1`, 3.26 µM.
Next, `FC(F)(F)c1cc(-n2cc(CN(Cc3ccccc3)Cc3ccccc3)nn2)c2cccc(C(F)(F)F)c2n1`: 9.1 µM; `CC(C)N(Cc1cn(-c2cc(C(F)(F)F)nc3c(C(F)(F)F)cccc23)nn1)C(C)C`: 4.8 µM.
Take `FC(F)(F)c1cc(-n2cc(CNC3C4CC5CC(C4)CC3C5)nn2)c2cccc(C(F)(F)F)c2n1` (stereo unspecified): 1 µM corresponded to half-maximal inhibition (IC50).
In the case of `CC(C)(C)NCc1cn(-c2cc(C(F)(F)F)nc3c(C(F)(F)F)cccc23)nn1` it was 2.8 µM.
`O[C@@H](c1cc(C(F)(F)F)nc2c(C(F)(F)F)cccc12)[C@H]1CCCCN1` [(S,R)-MEFLOQUINE] gave an IC50 of 20 µM.
